The values below come from PubChem BioAssay AID330 (DTP/NCI, 2004).

For this test, the system named is P388 leukemia ip, CD2F1 mice, survival T/C. The experiment in a line: NCI In Vivo Anticancer Drug Screen. Data for tumor model P388 Leukemia (intraperitoneal) in CD2F1 (CDF1) mice. The following applies: endpoint: median survival time, higher = longer survival. The essentials:
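Mice carrying the transplanted tumor received test compound or vehicle. Survival was recorded in each group, and the value is the treated-group measurement divided by that of the vehicle-treated control group.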

Where [1] appears, read: dose: 60.0 mg/kg/injection, schedule: Q01DX005 (ip), vehicle: saline with Tween-80.
Where [2] appears, read: dose: 120.0 mg/kg/injection, schedule: Q01DX005 (ip), vehicle: saline with Tween-80.
[3] abbreviates: dose: 240.0 mg/kg/injection, schedule: Q01DX005 (ip), vehicle: saline with Tween-80.
The mark [4] stands for this setting: dose: 50.0 mg/kg/injection, schedule: Q01DX009 (ip), vehicle: Klucel (hydroxypropylcellulose) (HPC).
Setting [5] is: dose: 100.0 mg/kg/injection, schedule: Q01DX009 (ip), vehicle: Klucel (hydroxypropylcellulose) (HPC).
The mark [6] stands for this setting: dose: 200.0 mg/kg/injection, schedule: Q01DX009 (ip), vehicle: Klucel (hydroxypropylcellulose) (HPC).
Setting [7] is: dose: 25.0 mg/kg/injection, schedule: Q01DX009 (ip), vehicle: other.
Where [8] appears, read: dose: 50.0 mg/kg/injection, schedule: Q01DX009 (ip), vehicle: other.
[9] abbreviates: dose: 100.0 mg/kg/injection, schedule: Q01DX009 (ip), vehicle: other.
The mark [10] stands for this setting: dose: 200.0 mg/kg/injection, schedule: Q01DX009 (ip), vehicle: other.
The mark [11] stands for this setting: dose: 60.0 mg/kg/injection, schedule: Q01DX005 (ip), vehicle: Klucel (hydroxypropylcellulose) (HPC).
Where [12] appears, read: dose: 120.0 mg/kg/injection, schedule: Q01DX005 (ip), vehicle: Klucel (hydroxypropylcellulose) (HPC).
[13] abbreviates: dose: 240.0 mg/kg/injection, schedule: Q01DX005 (ip), vehicle: Klucel (hydroxypropylcellulose) (HPC).

Values joined by “and” are separate entries in the source; they are usually repeats but may differ in a detail not shown here. Equal entries are not always repeated. Toxic doses and inconclusive results are not listed.

Turning to `Cc1ccccc1N(CC1CO1)CC1CO1` (stereo not drawn), the T/C by setting is: (dose: 25.0 mg/kg/injection, schedule: Q01DX009 (ip), vehicle: saline) 119 % of control; (dose: 100.0 mg/kg/injection, schedule: Q01DX009 (ip), vehicle: acetone) 156 % of control; (dose: 200.0 mg/kg/injection, schedule: Q01DX009 (ip), vehicle: saline) 165 % of control.
`COc1cccc2c1C(=O)c1c(O)c3c(c(O)c1C2=O)CC(O)(/C(C)=N/NC(=O)CCC(=O)N/N=C(\C)C1(O)Cc2c(O)c4c(c(O)c2C(OC2CC(N(C)C)C(O)C(C)O2)C1)C(=O)c1c(OC)cccc1C4=O)CC3OC1CC(N(C)C)C(O)C(C)O1` (stereo not drawn): the T/C reads like this: (dose: 1.0 mg/kg/injection, schedule: Q01DX009 (ip), vehicle: water) 157 % of control; (dose: 2.0 mg/kg/injection, schedule: Q01DX009 (ip), vehicle: water) 183 % of control; (dose: 3.13 mg/kg/injection, schedule: Q04DX003 (ip), vehicle: water) 103 % of control; (dose: 4.0 mg/kg/injection, schedule: Q01DX009 (ip), vehicle: water) 178 % of control and 203 % of control; (dose: 6.25 mg/kg/injection, schedule: Q04DX003 (ip), vehicle: water) 110 % of control; (dose: 8.0 mg/kg/injection, schedule: Q01DX009 (ip), vehicle: water) 160 % of control and 240 % of control. Moreover, the T/C was 117 % of control (dose: 12.5 mg/kg/injection, schedule: Q04DX003 (ip), vehicle: water); 152 % of control (dose: 16.0 mg/kg/injection, schedule: Q01DX009 (ip), vehicle: water); 174 % of control (dose: 25.0 mg/kg/injection, schedule: Q04DX003 (ip), vehicle: water); 119 % of control (dose: 50.0 mg/kg/injection, schedule: Q04DX003 (ip), vehicle: water).
Consider `S=P(NCCS)(N1CC1)N1CC1`, for which the T/C by setting is: (dose: 100.0 mg/kg/injection, schedule: Q04DX003 (ip), vehicle: saline with Tween-80) 109 % of control; (dose: 200.0 mg/kg/injection, schedule: Q04DX003 (ip), vehicle: saline with Tween-80) 122 % of control; (dose: 400.0 mg/kg/injection, schedule: Q04DX003 (ip), vehicle: saline with Tween-80) 91 % of control.
Turning to `COC1SCCn2c1nc1ccccc1c2=O` (stereo not drawn), the T/C was 107 % of control under setting [1], 98 % of control under setting [2] and 99 % of control under setting [3].
With `CN(C)C(=S)S(=O)(=O)CCCCCCS(=O)(=O)C(=S)N(C)C`, the T/C is 102 % of control and 103 % of control (dose: 50.0 mg/kg/injection, schedule: Q04DX002 (ip), vehicle: Klucel (hydroxypropylcellulose) (HPC)); 100 % of control and 110 % of control and 114 % of control (dose: 100.0 mg/kg/injection, schedule: Q04DX002 (ip), vehicle: Klucel (hydroxypropylcellulose) (HPC)); 107 % of control and 111 % of control and 123 % of control (dose: 200.0 mg/kg/injection, schedule: Q04DX002 (ip), vehicle: Klucel (hydroxypropylcellulose) (HPC)); 107 % of control and 109 % of control (dose: 300.0 mg/kg/injection, schedule: Q04DX002 (ip), vehicle: Klucel (hydroxypropylcellulose) (HPC)).
In the case of `Clc1ccc(N=NN2CCc3ccccc3C2)cc1`, the T/C reads like this: under setting [4], 99 % of control; under setting [5], 99 % of control; under setting [6], 93 % of control.
In the case of `CC(=O)c1ccc2ccccc2c1OC(=O)c1cccnc1`, the T/C was 100 % of control (dose: 6.25 mg/kg/injection, schedule: Q01DX009 (ip), vehicle: distilled water + Tween-80); 104 % of control (dose: 12.5 mg/kg/injection, schedule: Q01DX009 (ip), vehicle: distilled water + Tween-80); 111 % of control and 94 % of control (dose: 25.0 mg/kg/injection, schedule: Q01DX009 (ip), vehicle: distilled water + Tween-80); 107 % of control and 111 % of control (dose: 50.0 mg/kg/injection, schedule: Q01DX009 (ip), vehicle: distilled water + Tween-80); 117 % of control and 119 % of control (dose: 100.0 mg/kg/injection, schedule: Q01DX009 (ip), vehicle: distilled water + Tween-80); 121 % of control (dose: 200.0 mg/kg/injection, schedule: Q01DX009 (ip), vehicle: distilled water + Tween-80).
`CCC/C=C1/OC(=O)C2=C[C@H]3CC[C@]21[C@]1(OC(=O)C2=C1CCC=C2)[C@H]3CCC`: the T/C is, setting by setting: (dose: 7.0 mg/kg/injection, schedule: Q01DX005 (ip), vehicle: Klucel (hydroxypropylcellulose) (HPC)) 104 % of control; (dose: 14.0 mg/kg/injection, schedule: Q01DX005 (ip), vehicle: Klucel (hydroxypropylcellulose) (HPC)) 100 % of control; (dose: 28.0 mg/kg/injection, schedule: Q01DX005 (ip), vehicle: Klucel (hydroxypropylcellulose) (HPC)) 106 % of control; (dose: 56.0 mg/kg/injection, schedule: Q01DX005 (ip), vehicle: Klucel (hydroxypropylcellulose) (HPC)) 97 % of control.
As for `Cc1c(C)c2ccc(N(C)C)cc2[nH]c1=O`, the T/C was 113 % of control under setting [4], 106 % of control under setting [5] and 106 % of control under setting [6].
Take `[O-]c1on[n+](-c2ccccc2-n2cccn2)c1-c1ccccc1`: the T/C (dose: 100.0 mg/kg/injection, schedule: Q01DX001 (ip), vehicle: saline with Tween-80) is 90 % of control; the T/C (dose: 200.0 mg/kg/injection, schedule: Q01DX001 (ip), vehicle: saline with Tween-80) is 91 % of control; the T/C (dose: 400.0 mg/kg/injection, schedule: Q01DX001 (ip), vehicle: saline with Tween-80) was 90 % of control.
As for `CCOC(=O)C1CC(=O)c2ccc(OC)c(OC)c2C1` (stereo not drawn), the T/C by setting is: under setting [7], 103 % of control; under setting [8], 100 % of control; under setting [9], 94 % of control; under setting [10], 94 % of control; (dose: 400.0 mg/kg/injection, schedule: Q01DX009 (ip), vehicle: other) 98 % of control.
As to `CCCCN1C(=O)C(=C/C=C/C=C2\Oc3ccccc3N2CCCS(=O)(=O)O)C(=O)N(CCCC)C1=S`, the T/C runs as follows: under setting [11], 106 % of control; under setting [12], 106 % of control; under setting [13], 106 % of control.
Regarding `N#CC(C(=O)C(=O)Nc1cccc(C(F)(F)F)c1)c1ccccc1Cl` (stereo not drawn), the T/C runs as follows: under setting [1], 102 % of control; under setting [2], 97 % of control; under setting [3], 99 % of control.
As for `O=c1c(O)cccn1C1OC(CO)C(O)C1O` (stereo not drawn), the T/C runs as follows: (dose: 50.0 mg/kg/injection, schedule: Q01DX005 (ip), vehicle: saline) 99 % of control and 97 % of control and 104 % of control; (dose: 100.0 mg/kg/injection, schedule: Q01DX005 (ip), vehicle: saline) 99 % of control and 101 % of control and 117 % of control; (dose: 200.0 mg/kg/injection, schedule: Q01DX005 (ip), vehicle: saline) 104 % of control [middle of 4 runs]; (dose: 400.0 mg/kg/injection, schedule: Q01DX005 (ip), vehicle: saline) 102 % of control and 112 % of control and 87 % of control.
For `[N-]=[N+]=NCC1OC(n2cnc3c(=O)[nH]c(N)nc32)C(O)C1O` (stereo not drawn), the T/C is 107 % of control under setting [11], 107 % of control under setting [12] and 106 % of control under setting [13].
On to `COc1cccc(C(=O)NCCNCCNC(=O)c2cccc(OC)c2OC)c1OC`, for which the T/C is, setting by setting: under setting [1], 108 % of control; under setting [2], 104 % of control; under setting [3], 94 % of control.
Turning to `CCOC(=O)Nc1cc(Cl)c2[nH]c(=O)[nH]c2n1`, the T/C runs as follows: (dose: 12.5 mg/kg/injection, schedule: Q01DX009 (ip), vehicle: other) 103 % of control; under setting [7], 106 % of control; under setting [8], 100 % of control; under setting [9], 104 % of control; under setting [10], 100 % of control.
